Test results from US12595253B2, “Benzamides of pyrazolylamino-pyrimidinyl derivatives, and compositions and methods thereof” (LYNK PHARMACEUTICALS CO. LTD., priority 2019, dated 2026).
One block for each molecule: values may come before it.

Legend:
[1] = Dog pharmacokinetic study (intravenous and oral); type: in vivo; details: plasma, Beagle dogs, oral, 5 mg/kg, solution
Protocol: Pharmacokinetic profile of test articles in rodent were evaluated in fasted male ICR mouse and Sprague-Dawley rats. […] Typically, mice were dosed with 2 mg/kg and 10 mg/kg by intravenous injection and oral gavage, respectively. Rats were dosed with 1 mg/kg and 5 mg/kg by intravenous injection and oral gavage, respectively. Beagle dogs were dosed with 1 mg/kg and 5 mg/kg by intravenous injection and oral gavage, respectively. After dosing, blood samples were collected at each time point. For IV injection group, time points were set at 5, 15, 30 min, and then 1, 2, 4, 8 and 24 hours after dosing. For oral gavage group, timepoints were set at 15, 30 m, and then 1, 2, 4, 8, and 24 hours. Blood was collected into appropriately labeled tubes containing K2EDTA as the anticoagulant. Plasma was obtained within 1 hours of blood collection by centrifugation at 8000×g and 4° C. for 6 minutes, and then stored at −20° C. until analyzed by LCMS/MS for quantification.

[2] = Mouse pharmacokinetic study (intravenous and oral); type: in vivo; details: male, plasma, ICR mice, solution
Protocol: Pharmacokinetic profile of test articles in rodent were evaluated in fasted male ICR mouse and Sprague-Dawley rats. […] Rats were dosed with 1 mg/kg and 5 mg/kg by intravenous injection and oral gavage, respectively. Beagle dogs were dosed with 1 mg/kg and 5 mg/kg by intravenous injection and oral gavage, respectively. After dosing, blood samples were collected at each time point. For IV injection group, time points were set at 5, 15, 30 min, and then 1, 2, 4, 8 and 24 hours after dosing. For oral gavage group, timepoints were set at 15, 30 m, and then 1, 2, 4, 8, and 24 hours. Blood was collected into appropriately labeled tubes containing K2EDTA as the anticoagulant. Plasma was obtained within 1 hours of blood collection by centrifugation at 8000×g and 4° C. for 6 minutes, and then stored at −20° C. until analyzed by LCMS/MS for quantification.

[3] = Mini-pig dermal pharmacokinetic study; type: in vivo, Guangxi Bama mini-pigs; details: topical administration
Description: The aim of this study was to obtain the topical distribution of test articles in mini-pig after topical administration. Test articles were formulated in 50% PEG400, 10% transcutol and 40% PEG3350 (50% in water), and then applied to male Guangxi Bama mini-pigs (17-20 kg). Twenty-four hour prior to dosing, the hair of the mini-pig was shaved in left and right sides of the back. Two areas at least 5 cm apart at each side of the back were exposed (a total of four areas, each of which was about 112 cm^2). At the time zero, the test article was dosed to the exposed skins with […]. After dosing, the blood and skin samples were collected at 0.5, 1, 3, 6 hour. The blood was taken via venipuncture, and collected to the tubes containing heparin sodium as the anticoagulant. Exposed skin was washed with soap and water before skin sample was collected. Upon the dosed skin the punch biopsy from the epidermis layer to the muscle layer were taken at each time point. Epidermis, dermis, subcutis and subcutaneous muscle were quickly separated, weighed and frozen in dry ice. Epidermis and dermis were homogenized in 1:3 (w/v) normal saline. Homogenized samples were extracted with 3 fold volumes of acetonitrile and quantified against a standard curve with LC-MS/MS system.

[4] = Dog pharmacokinetic study (intravenous and oral); type: in vivo; details: plasma, Beagle dogs, oral, 20 mg/kg, solution
[5] = Rat pharmacokinetic study (intravenous and oral); type: in vivo; details: male, plasma, Sprague-Dawley rats, intravenous, 1 mg/kg, solution
[6] = Rat pharmacokinetic study (intravenous and oral); type: in vivo; details: Sprague-Dawley rats, oral, 2 mg/kg, solution

AUC [1]: 29.9 ng·h/mL | Cmax [1]: 5.63 ng/mL | bioavailability [1]: 0.8% | half-life [1]: 3.34 h
SMILES: CC[C@@H](C#N)NC(=O)c1ccc(-c2nc(Nc3cnn(C4CCNCC4)c3)ncc2Cl)cc1 [Example 183, (S)-4-(5-chloro-2-((1-(piperidin-4-yl)-1H-pyrazol-4-yl)amino)pyrimidin-4-yl)-N-(1-cyanopropyl)benzamide]

AUC [1]: 93.6 ng·h/mL | Cmax [1]: 37.9 ng/mL | bioavailability [1]: 4.6% | half-life [1]: 1.66 h
SMILES: Cc1cnc(Nc2cnn(C3CCN(C(=O)CO)CC3)c2)nc1-c1ccc(C(=O)N[C@@H](C)C#N)cc1 [Example 119, (S)—N-(1-cyanoethyl)-4-(2-((1-(1-(2-hydroxyacetyl)piperidin-4-yl)-1H-pyrazol-4-yl)amino)-5-methylpyrimidin-4-yl)benzamide]

AUC [1]: 27.9 ng·h/mL | Cmax [1]: 11 ng/mL | bioavailability [1]: 0.9%
SMILES: C[C@@H](C#N)NC(=O)c1ccc(-c2nc(Nc3cnn(C4CCNCC4)c3)ncc2Cl)cc1 [Example 165, (S)-4-(5-chloro-2-((1-(piperidin-4-yl)-1H-pyrazol-4-yl)amino)pyrimidin-4-yl)-N-(1-cyanoethyl)benzamide]

AUC ([2]; intravenous, 1 mg/kg): 279 ng·h/mL | Vd ([2]; intravenous, 1 mg/kg): 0.67 L/kg | clearance ([2]; intravenous, 1 mg/kg): 59.5 mL/min/kg | half-life ([2]; intravenous, 1 mg/kg): 0.13 h | AUC ([2]; oral, 5 mg/kg): 113 ng·h/mL | Cmax ([2]; oral, 5 mg/kg): 175 ng/mL | bioavailability ([2]; oral, 5 mg/kg): 8.26% | half-life ([2]; oral, 5 mg/kg): 1.7 h | Dermis, AUC0-last ([3]; dermis): 5209.4 ng·h/g | Epidermis AUC0-last ([3]; epidermis): 107236.9 ng·h/g
SMILES: Cc1cnc(Nc2cnn(C3CC(C)(C)OC(C)(C)C3)c2)nc1-c1ccc(C(=O)NCC#N)cc1 [Example 113, N-(cyanomethyl)-4-(5-methyl-2-((1-(2,2,6,6-tetramethyltetrahydro-2H-pyran-4-yl)-1H-pyrazol-4-yl)amino)pyrimidin-4-yl)benzamide]

AUC [1]: 527 ng·h/mL | Cmax [1]: 125 ng/mL | bioavailability [1]: 19.1% | half-life [1]: 3.15 h
SMILES: CC[C@@H](C#N)NC(=O)c1ccc(-c2nc(Nc3cnn(C4CCN(C)CC4)c3)ncc2C)cc1 [Example 184, (S)—N-(1-Cyanopropyl)-4-(5-methyl-2-((1-(1-methylpiperidin-4-yl)-1H-pyrazol-4-yl)amino)pyrimidin-4-yl)benzamide]

AUC [4]: 57.2 ng·h/mL | Cmax [4]: 58 ng/mL | bioavailability [4]: 1.8% | half-life [4]: 0.439 h | AUC [5]: 855 ng·h/mL | Vd [5]: 0.37 L/kg | clearance [5]: 19.4 mL/min/kg | half-life [5]: 0.22 h | F [6]: 1.9% | AUC ([6]; male, rat, plasma): 29.8 ng·h/mL | Cmax ([6]; male, rat, plasma): 40.4 ng/mL | half-life ([6]; male, rat, plasma): 0.38 h
SMILES: Cc1cnc(Nc2cnn(CC#N)c2)nc1-c1ccc(C(=O)NCC#N)cc1 [Example 4, N-(Cyanomethyl)-4-(2-((1-(cyanomethyl)-1H-pyrazol-4-yl)amino)-5-methylpyrimidin-4-yl)benzamide]
